Measurements as given in US20240208992A1, “MACROCYCLES AS CFTR MODULATORS” (Idorsia Pharmaceuticals Ltd, priority 2021, published 2024).
pEC50: −log10 of the molar value.

Biological target: human F508del-CFTR (Homo sapiens, UniProt P13569, DEL508-508)
Assay: F508del-CFTR cell surface expression (corrector activity), DiscoveRx ß-galactosidase complementation chemiluminescence assay in recombinant U2OS cell line;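 note: U2OS cells co-expressing ProLink-tagged F508del-CFTR and a membrane-anchored enzyme acceptor, where more surface CFTR restores β-galactosidase activity measured by chemiluminescence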
Details: U2OS cell line, 16h compound incubation; for pEC50: EC50, F508del-CFTR cell surface expression, geomean values; for Emax: U2OS, in relation to the Emax of the corrector lumacaftor (=100%), arithmetic mean values

human F508del-CFTR, sequence (P13569 with tags, fused parts or gaps DEL508-508): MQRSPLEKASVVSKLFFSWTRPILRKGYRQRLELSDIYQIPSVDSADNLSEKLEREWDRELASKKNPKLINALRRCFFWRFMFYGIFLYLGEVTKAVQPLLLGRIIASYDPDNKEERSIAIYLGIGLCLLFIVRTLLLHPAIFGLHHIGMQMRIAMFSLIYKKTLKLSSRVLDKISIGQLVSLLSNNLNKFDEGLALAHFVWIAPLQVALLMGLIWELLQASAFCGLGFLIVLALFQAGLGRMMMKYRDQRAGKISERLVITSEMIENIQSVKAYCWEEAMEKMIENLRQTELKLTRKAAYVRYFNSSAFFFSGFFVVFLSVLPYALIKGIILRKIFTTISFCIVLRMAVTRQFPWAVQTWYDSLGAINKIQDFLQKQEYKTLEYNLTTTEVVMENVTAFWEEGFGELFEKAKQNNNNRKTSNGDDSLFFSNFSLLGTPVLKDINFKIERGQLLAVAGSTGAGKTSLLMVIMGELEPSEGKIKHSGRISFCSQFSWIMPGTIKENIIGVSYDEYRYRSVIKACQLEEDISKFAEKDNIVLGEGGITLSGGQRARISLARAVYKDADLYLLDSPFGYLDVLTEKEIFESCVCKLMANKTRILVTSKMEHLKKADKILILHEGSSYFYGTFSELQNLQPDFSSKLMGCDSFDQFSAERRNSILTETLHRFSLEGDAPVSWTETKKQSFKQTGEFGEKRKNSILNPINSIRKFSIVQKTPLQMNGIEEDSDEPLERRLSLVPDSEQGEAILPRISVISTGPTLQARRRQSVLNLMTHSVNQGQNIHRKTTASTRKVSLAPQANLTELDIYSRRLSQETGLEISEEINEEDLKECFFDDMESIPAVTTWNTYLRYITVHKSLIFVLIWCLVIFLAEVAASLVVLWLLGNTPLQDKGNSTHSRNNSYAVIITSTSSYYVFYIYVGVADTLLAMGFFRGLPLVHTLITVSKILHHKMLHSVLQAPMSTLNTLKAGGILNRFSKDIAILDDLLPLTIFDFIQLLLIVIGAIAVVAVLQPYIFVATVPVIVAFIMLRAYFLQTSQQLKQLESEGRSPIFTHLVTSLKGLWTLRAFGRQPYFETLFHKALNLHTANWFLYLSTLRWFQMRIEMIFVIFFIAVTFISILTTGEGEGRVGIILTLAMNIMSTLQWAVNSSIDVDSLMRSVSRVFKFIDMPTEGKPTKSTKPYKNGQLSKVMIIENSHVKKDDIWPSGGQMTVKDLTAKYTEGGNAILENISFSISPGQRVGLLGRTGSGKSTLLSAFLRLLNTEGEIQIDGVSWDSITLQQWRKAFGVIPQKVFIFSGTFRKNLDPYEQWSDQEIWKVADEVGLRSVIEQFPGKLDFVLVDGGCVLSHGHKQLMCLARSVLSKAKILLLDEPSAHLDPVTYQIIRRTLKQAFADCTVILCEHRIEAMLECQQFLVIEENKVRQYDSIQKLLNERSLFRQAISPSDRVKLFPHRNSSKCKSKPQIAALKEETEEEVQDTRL

In the case of `COc1nccc2c1C(=O)N[C@H](C(=O)NCCc1ccc(Br)cc1)CC(=O)N(C)[C@@H](CC(C)C)C(=O)N1CCCC[C@@H]1C(=O)N[C@H](Cc1ccccc1)CO2` [Example 184, (7S,11S,17aR,20R)-20-benzyl-N-(4-bromophenethyl)-11-isobutyl-4-methoxy-10-methyl-5,9,12,18-tetraoxo-5,6,7,8,9,10,11,12,15,16,17,17a,18,19,20,21-hexadecahydro-14H-dipyrido[2,1-f:3′,4′-p][1]oxa[4,7,10,14]tetraazacycloheptadecine-7-carboxamide], the pEC50 was 6.39 and the Emax was 205%.

Compound `COc1ccc(CCNC(=O)[C@@H]2CC(=O)N(C)[C@@H](CC(C)C)C(=O)N3CCCC[C@@H]3C(=O)N[C@H](Cc3ccccc3)COc3ccnc(OC)c3C(=O)N2)cc1` [Example 185, (7S,11S,17aR,20R)-20-benzyl-11-isobutyl-4-methoxy-N-(4-methoxyphenethyl)-10-methyl-5,9,12,18-tetraoxo-5,6,7,8,9,10,11,12,15,16,17,17a,18,19,20,21-hexadecahydro-14H-dipyrido[2,1-f:3′,4′-p][1]oxa[4,7,10,14]tetraazacycloheptadecine-7-carboxamide] has a pEC50 of 6.42 and an Emax of 275%.

In the case of `COc1nccc2c1C(=O)N[C@H](C(=O)NCCc1cccc(C)c1)CC(=O)N(C)[C@@H](CC(C)C)C(=O)N1CCCC[C@@H]1C(=O)N[C@H](Cc1ccccc1)CO2` [Example 186, (7S,11S,17aR,20R)-20-benzyl-11-isobutyl-4-methoxy-10-methyl-N-(3-methylphenethyl)-5,9,12,18-tetraoxo-5,6,7,8,9,10,11,12,15,16,17,17a,18,19,20,21-hexadecahydro-14H-dipyrido[2,1-f:3′,4′-p][1]oxa[4,7,10,14]tetraazacycloheptadecine-7-carboxamide], the pEC50 was 6.19 and the Emax was 209%.

Work on `COc1nccc2c1C(=O)N[C@H](C(=O)NCCc1cnn(C3CC3)n1)CC(=O)N(C)[C@@H](CC(C)C)C(=O)N1CCCC[C@@H]1C(=O)N[C@H](Cc1ccccc1)CO2` [Example 187, (7S,11S,17aR,20R)-20-benzyl-N-(2-(2-cyclopropyl-2H-1,2,3-triazol-4-yl)ethyl)-11-isobutyl-4-methoxy-10-methyl-5,9,12,18-tetraoxo-5,6,7,8,9,10,11,12,15,16,17,17a,18,19,20,21-hexadecahydro-14H-dipyrido[2,1-f:3′,4′-p][1]oxa[4,7,10,14]tetraazacycloheptadecine-7-carboxamide] yielded a pEC50 of 6.19 and an Emax of 267%.

`COc1cnn(CCNC(=O)[C@@H]2CC(=O)N(C)[C@@H](CC(C)C)C(=O)N(C)C3(CC3)C(=O)N[C@H](Cc3ccccc3)COc3cnc4ccc(F)cc4c3C(=O)N2)c1` [Example 188, (3′S,7′S,13′R)-13′-benzyl-20′-fluoro-7′-isobutyl-N-(2-(4-methoxy-1H-pyrazol-1-yl)ethyl)-6′,9′-dimethyl-1′,5′,8′,11′-tetraoxo-2′,3′,4′,5′,6′,7′,8′,9′,11′,12′,13′,14′-dodecahydro-1′H-spiro[cyclopropane-1,10′-[1]oxa[4,7,10,14]tetraazacycloheptadecino[17,16-c]quinoline]-3′-carboxamide] was tested, and the pEC50 was 6.23 and the Emax was 275%.

Compound `C#Cc1cccc(CCNC(=O)[C@@H]2CC(=O)N(C)[C@@H](CC(C)C)C(=O)N3CCCC[C@@H]3C(=O)N[C@H](Cc3ccccc3)COc3ccnc(OC)c3C(=O)N2)c1` [Example 189, (7S,11S,17aR,20R)-20-benzyl-N-(3-ethynylphenethyl)-11-isobutyl-4-methoxy-10-methyl-5,9,12,18-tetraoxo-5,6,7,8,9,10,11,12,15,16,17,17a,18,19,20,21-hexadecahydro-14H-dipyrido[2,1-f:3′,4′-p][1]oxa[4,7,10,14]tetraazacycloheptadecine-7-carboxamide] has a pEC50 of 6.34 and an Emax of 270%.

With `COc1nccc2c1C(=O)N[C@H](C(=O)NCCc1nc3c(s1)CCC3)CC(=O)N(C)[C@@H](CC(C)C)C(=O)N1CCCC[C@@H]1C(=O)N[C@H](Cc1ccccc1)CO2` [Example 190, (7S,11S,17aR,20R)-20-benzyl-N-(2-(5,6-dihydro-4H-cyclopenta[d]thiazol-2-yl)ethyl)-11-isobutyl-4-methoxy-10-methyl-5,9,12,18-tetraoxo-5,6,7,8,9,10,11,12,15,16,17,17a,18,19,20,21-hexadecahydro-14H-dipyrido[2,1-f:3′,4′-p][1]oxa[4,7,10,14]tetraazacycloheptadecine-7-carboxamide] the pEC50 was 6.48 and the Emax was 310%.

`COc1nccc2c1C(=O)N[C@H](C(=O)NCCc1cc(C(F)F)no1)CC(=O)N(C)[C@@H](CC(C)C)C(=O)N1CCCC[C@@H]1C(=O)N[C@H](Cc1ccccc1)CO2` [Example 191, (7S,11S,17aR,20R)-20-benzyl-N-(2-(3-(difluoromethyl)isoxazol-5-yl)ethyl)-11-isobutyl-4-methoxy-10-methyl-5,9,12,18-tetraoxo-5,6,7,8,9,10,11,12,15,16,17,17a,18,19,20,21-hexadecahydro-14H-dipyrido[2,1-f:3′,4′-p][1]oxa[4,7,10,14]tetraazacycloheptadecine-7-carboxamide] showed a pEC50 of 6.32 and an Emax of 295%.

For `COc1cc2c(cc1OC)C(=O)N[C@H](C(=O)NCCc1ccc(C)cc1)CC(=O)N(C)[C@@H](CC(C)C)C(=O)N(C)CC(=O)N[C@H](Cc1ccccc1)CO2` [Example 192, (3R,9S,13S)-3-benzyl-9-isobutyl-17,18-dimethoxy-7,10-dimethyl-N-(4-methylphenethyl)-5,8,11,15-tetraoxo-2,3,4,5,6,7,8,9,10,11,12,13,14,15-tetradecahydrobenzo[p][1]oxa[4,7,10,14]tetraazacycloheptadecine-13-carboxamide], the pEC50 was 6.50 and the Emax was 107%.

Compound `COc1ccc(CCNC(=O)[C@@H]2CC(=O)N(C)[C@@H](CC(C)C)C(=O)N(C)CC(=O)N[C@H](Cc3ccccc3)COc3cc(OC)c(OC)cc3C(=O)N2)cc1` [Example 193, (3R,9S,13S)-3-benzyl-9-isobutyl-17,18-dimethoxy-N-(4-methoxyphenethyl)-7,10-dimethyl-5,8,11,15-tetraoxo-2,3,4,5,6,7,8,9,10,11,12,13,14,15-tetradecahydrobenzo[p][1]oxa[4,7,10,14]tetraazacycloheptadecine-13-carboxamide] has a pEC50 of 6.28 and an Emax of 118%.

For `CCOc1cccc(CCNC(=O)[C@@H]2CC(=O)N(C)[C@@H](CC(C)C)C(=O)N(C)CC(=O)N[C@H](Cc3ccccc3)COc3cc(OC)c(OC)cc3C(=O)N2)c1` [Example 194, (3R,9S,13S)-3-benzyl-N-(3-ethoxyphenethyl)-9-isobutyl-17,18-dimethoxy-7,10-dimethyl-5,8,11,15-tetraoxo-2,3,4,5,6,7,8,9,10,11,12,13,14,15-tetradecahydrobenzo[p][1]oxa[4,7,10,14]tetraazacycloheptadecine-13-carboxamide], the pEC50 was 6.21 and the Emax was 178%.

In the case of `COc1cccc(CCNC(=O)[C@@H]2CC(=O)N(C)[C@@H](CC(C)C)C(=O)N(C)CC(=O)N[C@H](Cc3ccccc3)COc3cc(OC)c(OC)cc3C(=O)N2)c1` [Example 195, (3R,9S,13S)-3-benzyl-9-isobutyl-17,18-dimethoxy-N-(3-methoxyphenethyl)-7,10-dimethyl-5,8,11,15-tetraoxo-2,3,4,5,6,7,8,9,10,11,12,13,14,15-tetradecahydrobenzo[p][1]oxa[4,7,10,14]tetraazacycloheptadecine-13-carboxamide], the pEC50 was 6.05 and the Emax was 202%.

`COc1cc2c(cc1OC)C(=O)N[C@H](C(=O)NCCc1ccccc1F)CC(=O)N(C)[C@@H](CC(C)C)C(=O)N(C)CC(=O)N[C@H](Cc1ccccc1)CO2` [Example 196, (3R,9S,13S)-3-benzyl-N-(2-fluorophenethyl)-9-isobutyl-17,18-dimethoxy-7,10-dimethyl-5,8,11,15-tetraoxo-2,3,4,5,6,7,8,9,10,11,12,13,14,15-tetradecahydrobenzo[p][1]oxa[4,7,10,14]tetraazacycloheptadecine-13-carboxamide] gave a pEC50 of 6.37 and an Emax of 106%.

Work on `COc1cc2c(cc1OC)C(=O)N[C@H](C(=O)NCCc1ccc(N(C)C)cc1)CC(=O)N(C)[C@@H](CC(C)C)C(=O)N(C)CC(=O)N[C@H](Cc1ccccc1)CO2` [Example 197, (3R,9S,13S)-3-benzyl-N-(4-(dimethylamino)phenethyl)-9-isobutyl-17,18-dimethoxy-7,10-dimethyl-5,8,11,15-tetraoxo-2,3,4,5,6,7,8,9,10,11,12,13,14,15-tetradecahydrobenzo[p][1]oxa[4,7,10,14]tetraazacycloheptadecine-13-carboxamide] yielded a pEC50 of 6.24 and an Emax of 132%.

Compound `COc1cccc2c1C(=O)N[C@H](C(=O)NCCc1ccc3c(c1)OCO3)CC(=O)N(C)[C@@H](CC(C)C)C(=O)N(CCC1CCCCC1)CC(=O)N[C@H](Cc1ccccc1)CO2` [Example 198, (3R,9S,13S)-N-(2-(benzo[d][1,3]dioxol-5-yl)ethyl)-3-benzyl-7-(2-cyclohexylethyl)-9-isobutyl-16-methoxy-10-methyl-5,8,11,15-tetraoxo-2,3,4,5,6,7,8,9,10,11,12,13,14,15-tetradecahydrobenzo[p][1]oxa[4,7,10,14]tetraazacycloheptadecine-13-carboxamide] has a pEC50 of 6.71 and an Emax of 243%.

`COc1cccc(CCNC(=O)[C@@H]2CC(=O)N(C)[C@@H](CC(C)C)C(=O)N(CCC3CCCCC3)CC(=O)N[C@H](Cc3ccccc3)COc3cccc(OC)c3C(=O)N2)c1` [Example 199, (3R,9S,13S)-3-benzyl-7-(2-cyclohexylethyl)-9-isobutyl-16-methoxy-N-(3-methoxyphenethyl)-10-methyl-5,8,11,15-tetraoxo-2,3,4,5,6,7,8,9,10,11,12,13,14,15-tetradecahydrobenzo[p][1]oxa[4,7,10,14]tetraazacycloheptadecine-13-carboxamide] gave a pEC50 of 6.64 and an Emax of 214%.
